Consider 6 molecules from patent US4283408A, “Guanidinothiazole compounds, process for preparation and gastric inhibiting compositions containing them” (Yamanouchi Pharmaceutical Co., Ltd., priority 1979, dated 1981).

In series [1] the test system is Gastric acid secretion. Description: Gastric acid secretion in anesthetized dogs (histamine-induced). The format is in vivo, Mongrel dogs. The settings on record: Canis lupus familiaris, iv, read-out: (A) Gastric secretion ED50. How it is done:
(i) Gastric acid secretion in anesthetized dogs: Mongrel dogs weighing 8 to 15 Kg were deprived of food for 24 hr and anesthetized intravenously with pentobarbital (30 mg/Kg). […] The gastric juice was collected from the gastric cannula by gravity drainage every 15 min. Test compounds were given intravenously after gastric secretion induced by a continuous intravenous infusion of histamine (160 μg/Kg-hr) reached a steady state.

The subject of series [2] is Gastric acid secretion. The series is described as follows: Gastric acid secretion in pylorus-ligated rats. The format is in vivo, Male Wister rats. The conditions noted are these: Rattus norvegicus, read-out: (B) Pylorus-ligated rats ED50. How it is done: (ii) Gastric acid secretion in pylorus-ligated rats
Male Wister rats weighing about 200 g were deprived of food for 24 hr but allowed free access to water prior to the experiments in individual cages. […] Test compounds were intraduodenally given immediately after the ligation of pylorus. The animals were sacrificed 4 hr after drug administration and gastric contents were collected. […] The percent inhibition of gastric secretion by each dose of drugs was calculated from the acid outputs of control and of treated groups. ED50 values were determined by the probit method.

A short description of series [3]: Acute toxicity in mice. The conditions noted are these: mouse, in vivo, iv; male ICR mice; i.v.; 7 days observation; up and down method; base; read-out: (C) LD50 in mice. On the procedure:
(iii) Acute toxicity in mice
Drugs were injected intravenously in male ICR mice weighing about 35 g at a rate of 0.1 ml/10 sec and the animals were kept under observation for 7 days. LD50 values were determined by up and down method using 10 animals. The data are shown in Table I, under column entitled (C).

Series [4] concerns H2 -receptor. The conditions noted are these: isolated guinea pig atrium; effects mediated by the H2 -receptor; Ash and Schild, Black et al.; cited from earlier work.
[5] abbreviates: anesthetized dogs, i.v., histamine infusion 160 μg/Kg-hr, dose producing 50% inhibition of the acid output, base.
Where [6] appears, read: pylorus-ligated rats, intraduodenal, 4 hr, probit method, base.

What is called ED50 is the dose at which the effect has come halfway, by size or by number of responders. As usually defined, the LD50 is the dose expected to kill half of the subjects tested. With `CN/C(=N/CCSCc1nc[nH]c1C)NC#N` [Compound A, Ncyano-Nmethyl-N{2[(4methyl-5-imidazolyl)methylthio]ethyl}guanidine], the ED50 in series [1] turned out to be 0.333 ± 0.042 mg/kg; in series [2] (4 h) it was 42.6 mg/kg. Moreover, the LD50 at 168 h in series [3] was determined as 152 mg/kg.

As to `N#CN=C(N)NCCSCc1csc(NC(=N)N)n1` [Compound B, 2guanidino-4-[2(2-cyanoguanidino)ethylthiomethyl]thiazole], the results for the ED50 in series [1] (setting [5]) and in series [2] (setting [6]) were 0.0352 ± 0.0022 mg/kg and 49.3 mg/kg, respectively. For the same molecule, the LD50 at 168 h in series [3] was 94.6 mg/kg.

Regarding `NC(N)=Nc1nc(CSCCC(N)=NS(N)(=O)=O)cs1` [Example 1, N-sulfamoyl-3-[(2-guanidinothiazol-4-yl)methylthio]propionamidine], the ED50 in series [1] (setting [5]) amounted to 0.0087 ± 0.0005 mg/kg; in series [2] (setting [6]) it was 0.87 mg/kg. Further, in series [3], the LD50 at 168 h worked out at 244 mg/kg.

Regarding `CS(=O)(=O)NC(=N)CCSCc1csc(NC(=N)N)n1` [Example 2, N-methanesulfonyl-3-[(2-guanidinothiazol-4-yl)-methylthio]propionamidine], the ED50 in series [1] (setting [5]) came to 0.0191 ± 0.0026 mg/kg; in series [2] (setting [6]), 8.9 mg/kg. Further, the LD50 at 168 h in series [3] was determined as 152 mg/kg.

`COc1ccc(CN(CCN(C)C)c2ccccn2)cc1` [mepyramine]: the “inhibition of histamine effects on gastric acid secretion and heart rate” value in series [4] is “not inhibited”.

Regarding `C/N=C(\S)NCCSCc1[nH]cnc1C` [metiamide], in series [4], the “inhibition of histamine effects on gastric acid secretion and heart rate” value is “antagonized”.
